Assays:
Assay type in all cases: in vivo
rats [1] = test: Subcutaneous metrazol seizure threshold test (scMET), rats; details: for ED50: Rattus norvegicus; for scMET Results (protected/tested animals): i.p.
Description: In vivo activity testing was performed at the Epilepsy Branch, National Institute of Neurological Disorders and Stroke, National Institutes of Health (NIH, Bethesda, USA) within the Anticonvulsant Screening Program (ASP) (currently known as the Epilepsy Therapy Screening Program (ETSP)). Pharmacological evaluation was planned and performed in accordance with the Institute of Laboratory Resources polices on the humane care of laboratory animals and approved by the University of Utah’s Institutional Animal Care and Use Committee (IACUC). All testing protocols were previously published as well as they are available on the NIH website. In the tests, albino mice Carworth Farms No.1 (CF-1) (Charles River), C57/Bl6 mice (Charles River), Frings mice (University of Utah) or male rats Sprague–Dawley (Charles River) were used. All animals were housed, fed, and handled in a manner consistent with the recommendations in the National Council Publication, ‘Guide for the Care and Use of Laboratory animals’ [51]. The tested compound was suspended in 0.5% methylcellulose.
The tested compound was administered i.p. or p.o. at certain dose. Then, subcutaneous injection of metrazol (syn. pentetrazol, pentylenepentetrazol) dissolved in 0.9% NaCl at the dose of 85 mg/kg (mice) or 70 mg/kg (rats) was performed to induce seizures. Protection was scored if there was not an observed episode of clonic spasm of at least 5 sec.

[2] = Neurotoxicity (TOX), behavioral tests, rats; details: rat, in vivo
Description: (§1) In mice, the neurological deficit was measured by the rotarod test in which a 1 inch diameter knurled plastic rod rotating at 6 rpm was used. Tests were performed at 0.25 h or 0.5 h of intraperitoneal or oral administration of the certain dose of the compounds KM-568. Each mouse was placed on the rod. If the animal was not able to remain on the rod for at least 1 min in each of three trials, the neurotoxicity was scored. In rats, the neurological deficit was measured in behavioral tests and scored when ataxia and loss of placing response and muscle tone were observed. Tests in rats were performed after 0.5 h of intraperitoneal administration or 1.0 h of oral administration of the certain dose of compound KM-568. TD50s were calculated by probit analysis.

rats [3] = test: Neurotoxicity (TOX), behavioral tests, rats
Description: as §1

hippocampal kindled rats = test: Hippocampal kindled rat model; details: for Results (protected/tested animals) / Seizure Duration ± SEM / Seizure Score ± SEM (Racine scale): i.p.
Description: The electrodes were implanted in brains one week prior to experiments. Then, rats were stimulated with suprathreshold stimuli of 200 µA for 10 sec at 50 Hz every 30 min for 6 h on alternate days until fully kindled. One week after reaching the fully kindled state, the effect of 23 and 27 mg/kg, i.p. of KM-568 in the groups of 5–6 rats were evaluated. The tests were performed at different time points (0–2.25 h) after compound administration. The results were scored as behavioral seizure score (according to Racine scale) and after discharge duration. The protection was noted if the seizure score was 3 or less.

Compound: C[C@H](O)CNC(=O)/C=C/c1ccccc1 [KM-568, S(+)-(2E)-N-(2-hydroxypropyl)-3-phenylprop-2-enamide]
- ED50 (rats [1]; ip, 0.25 h, 95% confidence interval in parentheses): 41.7 mg/kg
- ED50 (rats [1]; po, 1.0 h, doses 62.5, 125.0, 250.0 mg/kg): > 250 mg/kg
- scMET Results (protected/tested animals) (rats [1]; 30 mg/kg, 0.25 h): 1/8
- scMET Results (protected/tested animals) (rats [1]; 45 mg/kg, 0.25 h): 4/8
- scMET Results (protected/tested animals) (rats [1]; 60 mg/kg, 0.25 h): 8/8
- scMET Results (protected/tested animals) (rats [1]; 95 mg/kg, 0.25 h): 8/8
- TD50 at 0.5 h ([2]; ip, 0.5 h, 95% confidence interval in parentheses): 95.2 mg/kg
- TD50 at 1 h ([2]; po, 1.0 h): > 500 mg/kg
- TOX Results (animals displaying neurotoxicity/animals used) (rats [3]; i.p., 60 mg/kg, 0.5 h): 0/8
- TOX Results (animals displaying neurotoxicity/animals used) (rats [3]; i.p., 80 mg/kg, 0.5 h): 0/8
- TOX Results (animals displaying neurotoxicity/animals used) (rats [3]; i.p., 100 mg/kg, 0.5 h): 2/8
- TOX Results (animals displaying neurotoxicity/animals used) (rats [3]; i.p., 120 mg/kg, 0.5 h): 5/8
- TOX Results (animals displaying neurotoxicity/animals used) (rats [3]; i.p., 140 mg/kg, 0.5 h): 7/8
- TOX Results (animals displaying neurotoxicity/animals used) (rats [3]; p.o., 125.0 mg/kg, 1.0 h): 0/2
- TOX Results (animals displaying neurotoxicity/animals used) (rats [3]; p.o., 250.0 mg/kg, 1.0 h): 0/2
- TOX Results (animals displaying neurotoxicity/animals used) (rats [3]; p.o., 500.0 mg/kg, 1.0 h): 0/2
- ED50 (hippocampal kindled rats; Rattus norvegicus, ip): 24.2 mg/kg
- Results (protected/tested animals) (hippocampal kindled rats; 23 mg/kg, 15 min): 2/6
- Seizure Duration ± SEM (hippocampal kindled rats; 23 mg/kg, 15 min): 55.67 ± 6.44 s
- Seizure Score ± SEM (Racine scale) (hippocampal kindled rats; 23 mg/kg, 15 min): 3.67 ± 0.84
- Seizure Duration ± SEM (hippocampal kindled rats; 23 mg/kg, 45 min): 65.83 ± 14.61 s
- Seizure Score ± SEM (Racine scale) (hippocampal kindled rats; 23 mg/kg, 45 min): 5.0 ± 0.0
- Seizure Duration ± SEM (hippocampal kindled rats; 23 mg/kg, 75 min): 56.67 ± 6.96 s
- Seizure Score ± SEM (Racine scale) (hippocampal kindled rats; 23 mg/kg, 75 min): 5.0 ± 0.0
- Seizure Duration ± SEM (hippocampal kindled rats; 23 mg/kg, 100 min): 57.83 ± 9.27 s
- Seizure Score ± SEM (Racine scale) (hippocampal kindled rats; 23 mg/kg, 100 min): 5.0 ± 0.0
- Seizure Duration ± SEM (hippocampal kindled rats; 23 mg/kg, 135 min): 55.17 ± 9.48 s
- Seizure Score ± SEM (Racine scale) (hippocampal kindled rats; 23 mg/kg, 135 min): 5.0 ± 0.0
- Results (protected/tested animals) (hippocampal kindled rats; 27 mg/kg, 15 min): 4/5
- Seizure Duration ± SEM (hippocampal kindled rats; 27 mg/kg, 15 min): 50.4 ± 3.08 s
- Seizure Score ± SEM (Racine scale) (hippocampal kindled rats; 27 mg/kg, 15 min): 1.8 ± 0.97
- Seizure Score ± SEM (Racine scale) (hippocampal kindled rats; 27 mg/kg, 45 min): 4.2 ± 0.80
- Seizure Duration ± SEM (hippocampal kindled rats; 27 mg/kg, 75 min): 70.6 ± 27.57 s
- Seizure Score ± SEM (Racine scale) (hippocampal kindled rats; 27 mg/kg, 75 min): 3.4 ± 0.98
- Seizure Duration ± SEM (hippocampal kindled rats; 27 mg/kg, 100 min): 62.5 ± 10.71 s
- Seizure Score ± SEM (Racine scale) (hippocampal kindled rats; 27 mg/kg, 100 min): 5.0 ± 0.0
- Seizure Duration ± SEM (hippocampal kindled rats; 27 mg/kg, 135 min): 95.0 ± 17.78 s
- Seizure Score ± SEM (Racine scale) (hippocampal kindled rats; 27 mg/kg, 135 min): 5.0 ± 0.0

From publication PMC7352759, “S(+)-(2E)-N-(2-Hydroxypropyl)-3-Phenylprop-2-Enamide (KM-568): A Novel Cinnamamide Derivative with Anticonvulsant Activity in Animal Models of Seizures and Epilepsy” (International Journal of Molecular Sciences, 2020)
